Data as given in US20190125672A1, “Fabrication of Magnetic Vesicles for Biomedical Imaging and Delivery” (University of Maryland, College Park, priority 2017, published 2019).
≈ marks a conversion by molar mass, not a printed value.

What was measured:
[1] = test system: U87MG tumors; test: In vivo tumor suppression; parameters: species or system mice; settings: without magnet; Dox-equivalent dose 5 mg/kg i.v.; over 30 days
Method: The therapeutic efficacy was evaluated by monitoring the tumor volume change every two days over 30 days (FIG. 61A).
The U87MG tumor-bearing mice were randomly divided into six groups with 5 mice in each group. The first group of mice received PBS, as control group; the second group was injected with Dox solution, as “Dox” group; the third group was injected with Dox-MuMVs without magnetic attraction, as “magnet- RGD-” group; the fourth group was injected with RGD-Dox-MuMVs without magnetic enrichment, as “magnet-RGD+” group; the fifth group was injected with Dox-MuMVs under magnetic attraction, as “magnet+RGD-” group; the sixth group was injected with RGD-Dox-MuMVs under magnetic attraction, as “[…]” group. All the experimental groups (2-6 groups) are dispersed in 150 μl PBS before intravenous administration with a Dox-equivalent dose of 5 mg/kg. For the groups under magnetic attraction, the magnet was applied for 1 h along with injection of therapeutic agents. […] after the corresponding treatments, the volume of tumors was measured every other day and calculated by the following equation: V=L×W^2/2. The body weight of the mice was also evaluated during this period to reveal the systemic toxicity of the delivery platform.

[2] = test system: U87MG cells; test: MTT cytotoxicity assay; settings: Dox concentration
Method: Cells were plated at a density of 1×10^4 in 96-well plates and cultured at 37° C. for 24 hours. Then the culture medium was replaced and the cells were incubated with different concentrations of Dox, Mu magento-vesicles, Dox-Mu magento-vesicles, and RGD-Dox-Mu magento-vesicles for 1 hour. The concentrations of Fe in MuMVs, Dox-MuMVs and RGD-Dox-MuMVs as well as the concentrations of Dox in free drug, Dox-MuMVs and RGD-Dox-MuMVs groups were kept constant for the purpose of comparison. Then the culture medium was replaced with fresh medium and the cells were incubated for another 12 hours, followed by the addition of 20 μL of the MTT solution (5 mg/mL). After incubation for 4 hours, culture supernatants were carefully removed and 100 μL of DMSO was added into each well to dissolve the purple precipitate. The concentration of the reduced MTT in each well was determined spectrophotometrically by subtraction of the absorbance reading at 650 nm from that measured at 570 nm using a microplate reader (SpectraMax M5). Cell viabilities were presented as the percentage of the absorbance of Dox, MuMVs, Dox-MuMVs and RGD-Dox-MuMVs treated cells to the absorbance of non-treated cells and plotted as Fe and Dox concentrations.

With COc1cccc2c1C(=O)c1c(O)c3c(c(O)c1C2=O)C[C@@](O)(C(=O)CO)C[C@@H]3O[C@H]1C[C@H](N)[C@H](O)[C@H](C)O1 [Dox, doxorubicin] the tumor growth [1] was “Minor delay in tumor growth” and the IC50 [2] was 0.47 µg/mL (≈ 0.865 µM).
